Where two headings read alike, the source gives them in different places. Starred links: 1 amine or outer side, 2 acyl side, 3 side chain; linkers in the order of their positions; H or OH if unused. Positions of bridges follow the written chain, without caps; N, C: chain ends. Residues, ends and D or L forms follow the SMILES beside them. Groups on a side chain read outwards from the residue. *: point of attachment. PEG12 = NCCOCCOCCOCCOCCOCCOCCOCCOCCOCCOCCOCCOCCC(=O)O; Biotin = O=C1N[C@H]2[C@H](CS[C@H]2CCCCC(=O)*)N1; TBMB = c1c(C[*:1])cc(C[*:3])cc1C[*:2]

Experimental findings from article PMC8600089, “The development of a high-affinity conformation-sensitive antibody mimetic using a biocompatible copolymer carrier (iBody)” (The Journal of Biological Chemistry, 2021) are described below.

Assay [1] has as its target T1, recombinant extracellular part of PSMA (Homo sapiens, UniProt Q04609). Kind of assay: Competition ELISA: iBody 1 binding to PSMA versus PSMA inhibitors. (In an ELISA, binding on a coated surface is turned into a signal by an enzyme label.)
The next assay concerns the target PSMA (AviPSMA) (Homo sapiens, UniProt Q04609). The assay is described as follows: PSMA activity assay (HPLC, substrate pteroyl-di-L-glutamate). Format: biochemical.
Assay [2] has as its target T1, recombinant extracellular part of PSMA. The assay is described as follows: ELISA with immobilized PSMA.

T1 sequence (Q04609 44-750 limits assumed): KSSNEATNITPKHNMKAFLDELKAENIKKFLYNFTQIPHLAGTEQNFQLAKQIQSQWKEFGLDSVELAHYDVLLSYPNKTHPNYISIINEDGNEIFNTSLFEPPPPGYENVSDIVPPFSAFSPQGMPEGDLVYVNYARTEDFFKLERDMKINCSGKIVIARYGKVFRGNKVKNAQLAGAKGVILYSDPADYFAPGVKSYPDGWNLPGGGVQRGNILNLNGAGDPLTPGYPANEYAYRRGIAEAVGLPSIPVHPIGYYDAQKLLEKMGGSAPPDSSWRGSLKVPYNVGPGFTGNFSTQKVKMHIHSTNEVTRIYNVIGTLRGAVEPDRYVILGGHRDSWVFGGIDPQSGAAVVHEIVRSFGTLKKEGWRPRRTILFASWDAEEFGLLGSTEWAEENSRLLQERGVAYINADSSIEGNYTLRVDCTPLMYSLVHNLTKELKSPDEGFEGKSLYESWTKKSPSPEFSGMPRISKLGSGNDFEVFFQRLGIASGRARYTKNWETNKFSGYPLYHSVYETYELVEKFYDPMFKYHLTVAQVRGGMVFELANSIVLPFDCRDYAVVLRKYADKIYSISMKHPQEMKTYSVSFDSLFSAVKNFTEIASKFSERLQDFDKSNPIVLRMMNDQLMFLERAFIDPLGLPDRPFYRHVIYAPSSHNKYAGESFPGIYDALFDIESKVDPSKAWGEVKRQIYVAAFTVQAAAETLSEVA
Chain of PSMA (AviPSMA) (Q04609 44-750 limits assumed): as above

Regarding `O=C(O)CCC(CP(=O)(O)O)C(=O)O` (centres unmarked) [2-PMPA, 2-(phosphonomethyl)pentane-1,5-dioic acid], in assay [1], the “competition with binding of iBody 1 to PSMA on ELISA (in words)” value is “outcompeted”.

One may read the IC50 as the concentration that gives 50% inhibition. A low value points to greater potency in that assay. Broadly, the inhibition is the change of the read-out against control, counted positive when it falls. Low readings indicate a response near the control, high ones a response far below the control. The term EC50 denotes the midpoint of the concentration-response curve. `CC(=O)N[C@H]1CSCc2cc3cc(c2)CSC[C@H](NC(=O)[C@H](CCC(=O)O)NC(=O)[C@H](CC(=O)O)NC(=O)[C@H](CC(=O)O)NC1=O)C(=O)N1CCC[C@H]1C(=O)N[C@@H](CC(=O)O)C(=O)N[C@@H](Cc1ccc(O)cc1)C(=O)N[C@@H](C(C)C)C(=O)N[C@H](C(=O)NCC(=O)NCC(=O)N[C@@H](CO)C(=O)NCC(=O)N[C@@H](CCCCNC(=O)CCOCCOCCOCCOCCOCCOCCOCCOCCOCCOCCOCCOCCNC(=O)CCCC[C@@H]1SC[C@@H]2NC(=O)N[C@@H]21)C(N)=O)CSC3` [Peptide 1] (Ac-CDDECPDYVCGGSGK([PEG12-Biotin])-NH2; linker 1-5-10 via TBMB) returned an IC50 on PSMA (AviPSMA) (cell gives μM under a head in nM, 20-min incubation, 37 °C, n = 3) greater than 50 µM. The inhibition at 50 µM at PSMA (AviPSMA) (in 50μM) was determined as 10%. Moreover, in assay [2], the EC50 is greater than 5 µM.

In the case of phosphate, the “competition with binding of iBody 1 to PSMA on ELISA (in words)” value in assay [1] (iBody 1 (5 nM per legend), inhibitor pre-incubated 30 min, then iBody 60 min at RT, representative of >3 experiments, n = 3) is “outcompeted”.

For the compound “poly(HPMA-co-Ma-β-Ala-ATTO488-co-Ma-β-Ala-NH-ED-biotin) [iBody 3, reference compound]”, the “Ratio: value on layer with PSMA divided by value on layer lacking PSMA” value in assay [2] (8 nM iBody) is reported as 0.9; in assay [2] (40 nM iBody), 1.3; in assay [2] (200 nM iBody), 1.1; in assay [2] (1000 nM iBody) it was 0.8; in assay [2] (5000 nM iBody), 0.8. The “specific binding to immobilized PSMA compared with control layer (in words)” value in assay [2] (ELISA, layer with vs without PSMA) was “no specific binding”.
